Measured values: patent US3984547A, “Veterinary feedstuffs” (Bayer Aktiengesellschaft, priority 1971, dated 1976)
In brackets after ≈: the same amount, converted by molar mass. Like-named read-outs stand apart in the source and are kept apart here. Values belong to the molecule of their own block, whether it stands above or below them.

Key:
Proteus vulgaris species = test: MIC in vitro, plate test (agar), Table 1; assay type: cell-based; conditions: about 37° C, readings 24 and 48 h
Description: (§1) The minimum inhibitory concentrations in vitro for some of the new compounds shown in Table 1 (MIC) were determined by the plate test in an agar medium of the following composition: |proteose peptone 10.0 g per liter |5.1 × 10^3 germs were inoculated per plate. […]. Readings were taken after 24 and 48 hours, and the incubation temperature was about 37° C.

[1] = system: Pseudomonas aeruginosa Bonn; test: MIC in vitro, plate test (agar), Table 1; assay type: cell-based; conditions: about 37° C, readings 24 and 48 h
Description: as §1

Escherichia coli C 165 = test: ED100 in mice after intraperitoneal infection, Table 3; assay type: in vivo; conditions: read-out: effective 100% dose (ED100)
Description: In animal experiments on mice, the effective 100% dose (ED100) in mg/Kg was determined for certain compounds of the invention after intraperitoneal infection and subcutaneous (s.c.) or oral (p.o.) administration of the preparation.

- MIC (Proteus vulgaris species): 150 µg/mL (≈ 515 µM)
SMILES: NC(=O)NN=Cc1c(C(=O)O)[n+]([O-])c2ccccc2[n+]1[O-] [Example 12]

- MIC [1]: 100 µg/mL (≈ 403 µM)
SMILES: NN=Cc1c(C(=O)O)[n+]([O-])c2ccccc2[n+]1[O-] [Example 10]

SMILES: O=C(O)c1c(C=NCCO)[n+]([O-])c2ccccc2[n+]1[O-] [Example 8]
- ED100 (Escherichia coli C 165; C165, oral (p.c. [sic])): 100 mg/kg
- ED100 (Escherichia coli C 165; C165, sc, s.c.): 50 mg/kg
